According to ChEMBL document CHEMBL1201862, “PubChem BioAssay data set” (2004):
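Tested at 5 concentrations; 48 h exposure; 96-well plates; endpoints linearly interpolated, else capped at highest concentration. The concentration for 50% growth inhibition is given as GI50.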 Calls of active or inactive are those of the source. No stated cut-off is given here; in the data, active = GI50 up to about 1.1 µM and inactive = higher.

Experiments:
Experiment in all cases: growth of human tumour cells (NCI), 48 h
[1] = test system: SK-MEL-28
[2] = test system: MDA-MB-435
[3] = test system: HL-60
[4] = test system: UACC-62
[5] = test system: SF-295
[6] = test system: SNB-19
[7] = test system: MDA-N
[8] = test system: SF-268
[9] = test system: IGROV-1
[10] = test system: Malme-3M
[11] = test system: SK-MEL-5
[12] = test system: OVCAR-4
[13] = test system: NCI-H226
[14] = test system: ACHN
[15] = test system: 786-0
[16] = test system: KM12
[17] = test system: HOP-92
[18] = test system: SW-620
[19] = test system: HOP-62
[20] = test system: PC-3
[21] = test system: MOLT-4
[22] = test system: CAKI-1
[23] = test system: SN12C
[24] = test system: A498
[25] = test system: OVCAR-8
[26] = test system: NCI-H522
[27] = test system: HCC 2998
[28] = test system: Hs-578T
[29] = test system: RPMI-8226
[30] = test system: SK-MEL-2
[31] = test system: NCI-H460
[32] = test system: TK-10
[33] = test system: OVCAR-5
[34] = test system: SR
[35] = test system: SF-539
[36] = test system: K562
[37] = test system: CCRF-CEM
[38] = test system: UACC-257
[39] = test system: SNB-75
[40] = test system: UO-31
[41] = test system: A549
[42] = test system: NCI/ADR-RES
[43] = test system: DU-145
[44] = test system: BT-549
[45] = test system: NCI-H23
[46] = test system: EKVX
[47] = test system: T47D
[48] = test system: HT-29
[49] = test system: LOX IMVI
[50] = test system: HCT-116
[51] = test system: MCF7
[52] = test system: U-251
[53] = test system: COLO 205
[54] = test system: OVCAR-3
[55] = test system: MDA-MB-231
[56] = test system: RXF 393
[57] = test system: M14
[58] = test system: HCT-15
[59] = test system: SK-OV-3

With COc1ccc2oc(=O)cc(C)c2c1 the GI50 [1] was > 100000 nM (inactive), the GI50 [2] was > 100000 nM (inactive) and the GI50 [3] was > 100000 nM (inactive). For the same compound, the GI50 [4] was > 100000 nM (inactive), the GI50 [5] was > 100000 nM (inactive) and the GI50 [6] was > 100000 nM (inactive). For the same compound, the GI50 [7] was > 100000 nM (inactive), the GI50 [8] was > 100000 nM (inactive) and the GI50 [9] was > 100000 nM (inactive). For the same compound, the GI50 [10] was > 100000 nM (inactive), the GI50 [11] was > 100000 nM (inactive) and the GI50 [12] was > 100000 nM (inactive). The GI50 [13] was > 100000 nM (inactive), the GI50 [14] was > 100000 nM (inactive) and the GI50 [15] was > 100000 nM (inactive). For the same compound, the GI50 [16] was > 100000 nM (inactive), the GI50 [17] was > 100000 nM (inactive) and the GI50 [18] was > 100000 nM (inactive). The GI50 [19] was > 100000 nM (inactive), the GI50 [20] was > 100000 nM (inactive) and the GI50 [21] was > 100000 nM (inactive). For the same compound, the GI50 [22] was > 100000 nM (inactive), the GI50 [23] was > 100000 nM (inactive) and the GI50 [24] was > 100000 nM (inactive). For the same compound, the GI50 [25] was > 100000 nM (inactive), the GI50 [26] was > 100000 nM (inactive) and the GI50 [27] was > 100000 nM (inactive). For the same compound, the GI50 [28] was > 100000 nM (inactive), the GI50 [29] was > 100000 nM (inactive) and the GI50 [30] was > 100000 nM (inactive). The GI50 [31] was > 100000 nM (inactive), the GI50 [32] was > 100000 nM (inactive) and the GI50 [33] was > 100000 nM (inactive). For the same compound, the GI50 [34] was > 100000 nM (inactive), the GI50 [35] was > 100000 nM (inactive) and the GI50 [36] was > 100000 nM (inactive). The GI50 [37] was > 100000 nM (inactive), the GI50 [38] was > 100000 nM (inactive) and the GI50 [39] was 88500 nM (inactive). The GI50 [40] was 91400 nM (inactive), the GI50 [41] was > 100000 nM (inactive) and the GI50 [42] was > 100000 nM (inactive). For the same compound, the GI50 [43] was > 100000 nM (inactive), the GI50 [44] was > 100000 nM (inactive) and the GI50 [45] was > 100000 nM (inactive). The GI50 [46] was 21000 nM (inactive), the GI50 [47] was 73.3 nM (active) and the GI50 [48] was > 100000 nM (inactive). For the same compound, the GI50 [49] was > 100000 nM (inactive), the GI50 [50] was > 100000 nM (inactive) and the GI50 [51] was > 100000 nM (inactive). For the same compound, the GI50 [52] was > 100000 nM (inactive), the GI50 [53] was > 100000 nM (inactive) and the GI50 [54] was > 100000 nM (inactive). For the same compound, the GI50 [55] was > 100000 nM (inactive), the GI50 [56] was > 100000 nM (inactive) and the GI50 [57] was > 100000 nM (inactive).

For CC[C@@]1(O)C(=O)OCc2c1cc1n(c2=O)Cc2c-1nc1ccc(O)cc1c2CC[Si](C)(C)C, the GI50 [1] was 40.2 nM (active), the GI50 [2] was 7.66 nM (active) and the GI50 [3] was < 1 nM (active). The GI50 [4] was < 1 nM (active), the GI50 [5] was 1.31 nM (active) and the GI50 [6] was < 1 nM (active). The GI50 [7] was 13.3 nM (active), the GI50 [8] was < 1 nM (active) and the GI50 [9] was 24.8 nM (active). For the same compound, the GI50 [10] was 16 nM (active), the GI50 [11] was 1.16 nM (active) and the GI50 [12] was 29.1 nM (active). The GI50 [13] was 19.4 nM (active), the GI50 [14] was < 1 nM (active) and the GI50 [15] was < 1 nM (active). The GI50 [16] was 51.4 nM (active), the GI50 [58] was 102 nM and the GI50 [17] was 68.2 nM (active). The GI50 [18] was 4.38 nM (active), the GI50 [19] was < 1 nM (active) and the GI50 [20] was 141 nM (active). The GI50 [21] was < 1 nM (active), the GI50 [22] was < 1 nM (active) and the GI50 [23] was < 1 nM (active). For the same compound, the GI50 [24] was 3.83 nM (active), the GI50 [25] was 7.16 nM (active) and the GI50 [26] was 2.91 nM (active). For the same compound, the GI50 [27] was 17.4 nM (active), the GI50 [28] was 681 nM (active) and the GI50 [29] was 13.1 nM (active). For the same compound, the GI50 [30] was 100 nM (active), the GI50 [31] was < 1 nM (active) and the GI50 [59] was < 1 nM (active). The GI50 [32] was 38.5 nM (active), the GI50 [33] was 27.2 nM (active) and the GI50 [34] was < 1 nM (active). For the same compound, the GI50 [35] was < 1 nM (active), the GI50 [36] was 8.39 nM (active) and the GI50 [37] was < 1 nM (active). For the same compound, the GI50 [38] was 2.75 nM (active), the GI50 [39] was < 1 nM (active) and the GI50 [40] was 4.97 nM (active). The GI50 [41] was 3.66 nM (active), the GI50 [42] was 48.9 nM (active) and the GI50 [43] was < 1 nM (active). For the same compound, the GI50 [44] was 20.5 nM (active), the GI50 [45] was < 1 nM (active) and the GI50 [46] was 41 nM (active). For the same compound, the GI50 [47] was < 1 nM (active), the GI50 [48] was 12 nM (active) and the GI50 [49] was < 1 nM (active). The GI50 [50] was < 1 nM (active), the GI50 [51] was < 1 nM (active) and the GI50 [52] was < 1 nM (active). The GI50 [53] was 149 nM (active), the GI50 [54] was 24.7 nM (active) and the GI50 [55] was 187 nM (active). For the same compound, the GI50 [56] was 2.79 nM (active) and the GI50 [57] was < 1 nM (active).
